{"source": "patent US20190030036A1", "about": "“PHOSPHODIESTERASE INHIBITOR TREATMENT” (Cyrano Therapeutics, Inc., priority 2013, published 2019)", "key": {"asthmatic patients": {"system": "asthmatic patients", "assay": "sGaw after inhaled dry powder in asthmatic patients (Examples 5, 6)", "method": "To test this theory, asthmatic patients are enrolled in a dose escalating single blind study. On arrival to the clinic, subjects are allowed to rest for 20 minutes before baseline measurements of FEV1 (six recordings) and sGaw (five recordings) are made. Subjects receive a dry powder dispenser loaded with a dose of 2 mg theophylline or a dry powder carrier. […] After each inhalation, measurements of sGaw are made at 1, 3, 5, 10, 15, 20, 25, and 30 minutes.\nOn completion of the last recording, subjects inhale a 200 μg dose of salbutamol from a metered inhaler and a further measurement of sGaw is made after 15 minutes. Subjects are also monitored for coughing and are questioned about the taste of the drug.\nAsthmatic patients are enrolled in a dose escalating single blind study. On arrival to the clinic, subjects are allowed to rest for 20 minutes before baseline measurements of FEV1 (six recordings) and sGaw (five recordings) are made. Subjects receive a dry powder dispenser loaded with a dose of 1 mg IBMX formulated as a dry powder or a dry powder carrier. […] After each inhalation, measurements of sGaw are made at 1, 3, 5, 10, 15, 20, 25, and 30 minutes.\nOn completion of the last recording, subjects inhale a 200 μg dose of salbutamol from a metered inhaler and a further measurement of sGaw made after 15 minutes. Subjects are also be monitored for coughing and are questioned about the taste of the drug."}, "hyposmic patients": {"system": "hyposmic patients", "assay": "Smell acuity in open label trial of inhalable/nasal PDE inhibitor (Examples 3, 4)", "type": "in vivo, human", "settings": "nasal theophylline, not more than 500 μg, 1 month", "method": "Hyposmic patients for whom the etiology of smell loss is not associated with head injury or allergic rhinitis are enrolled in an open label trial of inhalable theophylline. Patients are started at an initial dose of not more than 500 μg formulated as a liquid spray or dry powder to be delivered as a metered dose. Initially only local patients are enrolled so that quicker dose titration is achieved. Groups of 5 patients are started on not more than 500 μg of theophylline and continued for 1 month.\nPatients are tested for improvement in smell acuity using the standard forced choice technique using four odors as described in Example 1. Additionally, subjective measurements of smell function are obtained using a scale from 0-100 as described in Example 1. Blood samples are also drawn to ascertain blood theophylline level to gauge its relationship to the expected recovery of smell.\nHyposmic patients for whom the etiology of smell loss is not associated with head injury or allergic rhinitis are enrolled in an open label trial of an inhalable PDE1 inhibitor. […]"}, "[1]": {"assay": "Plasma theophylline level, intranasal theophylline pilot study (Example 7)", "type": "in vivo, human", "settings": "intranasal theophylline 20 μg per naris once a day; eight patients", "source_text": "Blood was obtained by venipuncture to collect plasma and red blood cells used to measure trace metals (Cu, Zn, Mg), various enzymes, theophylline and other chemical moieties."}, "[2]": {"settings": "inhaled dry powder 2 mg theophylline"}}}
{"molecule": "Cn1c(=O)c2[nH]cnc2n(C)c1=O", "note": "[theophylline]", "values": [{"measurement": "sGaw above the baseline measurement", "setting": "asthmatic patients; after 30 minutes, inhaled dry powder 2 mg theophylline", "value": 20, "unit": "%"}, {"measurement": "taste and coughing", "setting": "asthmatic patients; dry powder formulation of theophylline vs nebulized liquid", "value": "without the unpleasant taste or the induction of coughing"}, {"measurement": "increase in sGaw relative to 200 μg inhaled salbutamol", "setting": "asthmatic patients; [2]", "value": "comparable"}, {"measurement": "time until sGaw baseline is reached", "setting": "asthmatic patients; [2]", "value": 1, "unit": "h"}, {"measurement": "recovery of smell acuity compared with oral administration", "setting": "hyposmic patients", "value": "at least an equivalent recovery of smell acuity"}, {"measurement": "plasma theophylline levels", "setting": "[1]", "value": "zero"}]}
